Assay results reported in patent US20250339569A1, “CARBONIC ANHYDRASE IX LIGANDS” (priority 2021, published 2025).
Starred links: 1 amine or outer side, 2 acyl side, 3 side chain; linkers in the order of their positions; H or OH if unused. Positions of bridges follow the written chain, without caps; N, C: chain ends. Non-standard residues stand in square brackets, D forms with d. Residues, ends and D or L forms follow the SMILES beside them. Groups on a side chain read outwards from the residue. *: point of attachment. Phe(3-NHCO(CH2)3SO2NH2) = N[C@@H](Cc1cccc(NC(=O)CCCS(N)(=O)=O)c1)C(=O)O; X57 = O=C(Cn1ccccc1=O)Nc1cccc(C[C@H](N[*:1])C(=O)[*:2])c1; DOTA = O=C(O)CN1CCN(CC(=O)O)CCN(CC(=O)*)CCN(CC(=O)O)CC1; Cyclopropanecarbonyl(1-CN) = N#CC1(C(=O)*)CC1; X7 = O=C([C@H](Cc1cccc(N[*:3])c1)N[*:1])[*:2]; Phe(4-NH2) = Nc1ccc(C[C@H](N)C(=O)O)cc1; X55 = O=C1Nc2ccc(C(=O)*)cc2S(=O)(=O)N1; mXylylene = c1cc(C[*:1])cc(C[*:2])c1; X49 = N#Cc1ccc(N2CCCN(*)CC2)c(F)c1; X36 = NS(=O)(=O)Cc1ccc(C(=O)*)cc1; X2 = O=C(CN1CCC(N[*:1])CC1)[*:2]; X60 = NC(=O)c1ccc(N2CC(N*)C2)cc1; tBuAla = CC(C)(C)C[C@H](N)C(=O)O; X1 = O=C(CN1CCN([*:1])CC1)[*:2]; X53 = Cc1cc2cc(CN*)ccc2[nH]c1=O; 4Amb = NCc1ccc(C(=O)O)cc1; Isovaleryl = CC(C)CC(=O)*; Fluoroacetyl = O=C(CF)*; X67 = CS(=O)(=O)CC(=O)*; X70 = N#Cc1ccc(CN*)cc1; Propionyl = CCC(=O)*

target: T1, CAIX-expressing human HT-29 colorectal cancer cells (Homo sapiens, UniProt Q16790); test: FACS binding assay (IC50 determination, competition with tracer 3BP-2776 or 3BP-4149); conditions: not given
T1 construct: CAIX-expressing human HT-29 colorectal cancer cells; host or cells: HT-29 human colorectal cancer cells
Procedure, shortened: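 HT-29 cells in FACS buffer (PBS, 1% FCS) at 500.000 cells/ml were exposed to compounds competing with a labelled tracer, with biotinylated compounds detected by 1 μg/mL APC-streptavidin for 30 min on ice. APC/Cy5 median fluorescence was read by flow cytometry and IC50 derived by 4PL fit.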

In the case of `CC(C)C[C@@H]1NC(=O)[C@H](Cc2ccc(NC(=O)CF)cc2)NC(=O)[C@H](CC(=O)O)NC(=O)[C@H]2CCCN2C(=O)[C@H](CCC(=O)O)NC(=O)[C@@H](NC(=O)[C@H](Cc2ccc(O)cc2)NC(=O)[C@@H](NC(=O)CN2CCC(NC(=O)CN3CCN(CC(=O)O)CCN(CC(=O)O)CCN(CC(=O)O)CC3)CC2)C(C)C)CSCc2cccc(c2)CSC[C@@H](C(N)=O)NC(=O)[C@H](CO)NC(=O)[C@H](Cc2c[nH]c3ccccc23)NC(=O)[C@H]([C@@H](C)O)NC1=O` [3BP-4358] ({DOTA}-[X2]VYCE[dP]D[Phe(4-NH2)](Fluoroacetyl)LTWSC-NH2; linker 4-13 via mXylylene), the IC50 is reported as 0.1 to 0.794 µM.

same assay, conditions: FACS binding assay, HT-29 cells, competition with tracer 3BP-2776 (10 nM, biotin-labeled), 4° C., 1 hour; read-out: pIC50 category (activity) (converted)

For `C[C@@H](O)[C@@H]1NC(=O)[C@H](CC(C)(C)C)NC(=O)[C@H](Cc2cccc(NC(=O)CCCS(N)(=O)=O)c2)NC(=O)[C@H](CC(=O)O)NC(=O)[C@H]2CCCN2C(=O)[C@H](CCC(=O)O)NC(=O)[C@@H](NC(=O)[C@H](Cc2ccc(O)cc2)NC(=O)CN2CCN(C(=O)CN3CCN(CC(=O)O)CCN(CC(=O)O)CCN(CC(=O)O)CC3)CC2)CSCc2cccc(c2)CSC[C@@H](C(N)=O)NC(=O)[C@H](CO)NC(=O)[C@H](Cc2c[nH]c3ccccc23)NC1=O` [3BP-4449] ({DOTA}-[X1]YCE[dP]D[Phe(3-NHCO(CH2)3SO2NH2)][tBuAla]TWSC-NH2; linker 3-12 via mXylylene), the IC50 was under 0.01 µM.

same assay, conditions: FACS binding assay, HT-29 cells, competition with tracer 3BP-4149 (3 nM, Cy5-labeled), 4° C., 1 hour; read-out: pIC50 category (activity) (converted)

`CC(C)C[C@@H]1NC(=O)[C@H](Cc2c[nH]c3ccccc23)NC(=O)[C@H](CCC(=O)NCc2ccc(C#N)cc2)NC(=O)[C@H]2CCCN2C(=O)[C@H](CCC(=O)O)NC(=O)[C@@H](NC(=O)[C@H](Cc2ccc(O)cc2)NC(=O)[C@@H](NC(=O)CN2CCC(NC(=O)CN3CCN(CC(=O)O)CCN(CC(=O)O)CCN(CC(=O)O)CC3)CC2)C(C)C)CSCc2cccc(c2)CSC[C@@H](C(N)=O)NC(=O)[C@H](CO)NC(=O)[C@H](Cc2c[nH]c3ccccc23)NC(=O)[C@H]([C@@H](C)O)NC1=O` [3BP-4340] ({DOTA}-[X2]VYCE[dP]E(X70)WLTWSC-NH2; linker 4-13 via mXylylene) and `CC(C)C[C@@H]1NC(=O)[C@H](Cc2c[nH]c3ccccc23)NC(=O)[C@H](CCC(=O)NCc2ccc(C(N)=O)cc2)NC(=O)[C@H]2CCCN2C(=O)[C@H](CCC(=O)O)NC(=O)[C@@H](NC(=O)[C@H](Cc2ccc(O)cc2)NC(=O)[C@@H](NC(=O)CN2CCC(NC(=O)CN3CCN(CC(=O)O)CCN(CC(=O)O)CCN(CC(=O)O)CC3)CC2)C(C)C)CSCc2cccc(c2)CSC[C@@H](C(N)=O)NC(=O)[C@H](CO)NC(=O)[C@H](Cc2c[nH]c3ccccc23)NC(=O)[C@H]([C@@H](C)O)NC1=O` [3BP-4345] ({DOTA}-[X2]VYCE[dP]E([4Amb-NH2])WLTWSC-NH2; linker 4-13 via mXylylene) fall in the same range of IC50: 0.01 to 0.0794 µM for the first, 0.01 to 0.0794 µM for the second.

`CCC(=O)Nc1ccc(C[C@@H]2NC(=O)[C@H](CC(=O)O)NC(=O)[C@H]3CCCN3C(=O)[C@H](CCC(=O)O)NC(=O)[C@@H](NC(=O)[C@H](Cc3ccc(O)cc3)NC(=O)[C@@H](NC(=O)CN3CCC(NC(=O)CN4CCN(CC(=O)O)CCN(CC(=O)O)CCN(CC(=O)O)CC4)CC3)C(C)C)CSCc3cccc(c3)CSC[C@@H](C(N)=O)NC(=O)[C@H](CO)NC(=O)[C@H](Cc3c[nH]c4ccccc34)NC(=O)[C@H]([C@@H](C)O)NC(=O)[C@H](CC(C)C)NC2=O)cc1` [3BP-4347] ({DOTA}-[X2]VYCE[dP]D[Phe(4-NH2)](Propionyl)LTWSC-NH2; linker 4-13 via mXylylene) and `CC(C)CC(=O)Nc1ccc(C[C@@H]2NC(=O)[C@H](CC(=O)O)NC(=O)[C@H]3CCCN3C(=O)[C@H](CCC(=O)O)NC(=O)[C@@H](NC(=O)[C@H](Cc3ccc(O)cc3)NC(=O)[C@@H](NC(=O)CN3CCC(NC(=O)CN4CCN(CC(=O)O)CCN(CC(=O)O)CCN(CC(=O)O)CC4)CC3)C(C)C)CSCc3cccc(c3)CSC[C@@H](C(N)=O)NC(=O)[C@H](CO)NC(=O)[C@H](Cc3c[nH]c4ccccc34)NC(=O)[C@H]([C@@H](C)O)NC(=O)[C@H](CC(C)C)NC2=O)cc1` [3BP-4348] ({DOTA}-[X2]VYCE[dP]D[Phe(4-NH2)](Isovaleryl)LTWSC-NH2; linker 4-13 via mXylylene) fall in the same range of IC50: 0.1 to 0.794 µM for the first, 0.1 to 0.794 µM for the second.

`CC(C)C[C@@H]1NC(=O)[C@H](Cc2ccc(NC(=O)C3(C#N)CC3)cc2)NC(=O)[C@H](CC(=O)O)NC(=O)[C@H]2CCCN2C(=O)[C@H](CCC(=O)O)NC(=O)[C@@H](NC(=O)[C@H](Cc2ccc(O)cc2)NC(=O)[C@@H](NC(=O)CN2CCC(NC(=O)CN3CCN(CC(=O)O)CCN(CC(=O)O)CCN(CC(=O)O)CC3)CC2)C(C)C)CSCc2cccc(c2)CSC[C@@H](C(N)=O)NC(=O)[C@H](CO)NC(=O)[C@H](Cc2c[nH]c3ccccc23)NC(=O)[C@H]([C@@H](C)O)NC1=O` [3BP-4357] ({DOTA}-[X2]VYCE[dP]D[Phe(4-NH2)](Cyclopropanecarbonyl(1-CN))LTWSC-NH2; linker 4-13 via mXylylene) and `CC(C)C[C@@H]1NC(=O)[C@H](Cc2ccc(NC(=O)CS(C)(=O)=O)cc2)NC(=O)[C@H](CC(=O)O)NC(=O)[C@H]2CCCN2C(=O)[C@H](CCC(=O)O)NC(=O)[C@@H](NC(=O)[C@H](Cc2ccc(O)cc2)NC(=O)[C@@H](NC(=O)CN2CCC(NC(=O)CN3CCN(CC(=O)O)CCN(CC(=O)O)CCN(CC(=O)O)CC3)CC2)C(C)C)CSCc2cccc(c2)CSC[C@@H](C(N)=O)NC(=O)[C@H](CO)NC(=O)[C@H](Cc2c[nH]c3ccccc23)NC(=O)[C@H]([C@@H](C)O)NC1=O` [3BP-4360] ({DOTA}-[X2]VYCE[dP]D[Phe(4-NH2)](X67)LTWSC-NH2; linker 4-13 via mXylylene) fall in the same range of IC50: 0.1 to 0.794 µM for the first, 0.1 to 0.794 µM for the second.

First: CC(C)C[C@@H]1NC(=O)[C@H](Cc2cccc(NC(=O)Cn3ccccc3=O)c2)NC(=O)[C@H](CC(=O)O)NC(=O)[C@H]2CCCN2C(=O)[C@H](CCC(=O)O)NC(=O)[C@@H](NC(=O)[C@H](Cc2ccc(O)cc2)NC(=O)[C@@H](NC(=O)CN2CCC(NC(=O)CN3CCN(CC(=O)O)CCN(CC(=O)O)CCN(CC(=O)O)CC3)CC2)C(C)C)CSCc2cccc(c2)CSC[C@@H](C(N)=O)NC(=O)[C@H](CO)NC(=O)[C@H](Cc2c[nH]c3ccccc23)NC(=O)[C@H]([C@@H](C)O)NC1=O [3BP-4370] ({DOTA}-[X2]VYCE[dP]D[X57]LTWSC-NH2; linker 4-13 via mXylylene)
Second: CC(C)C[C@@H]1NC(=O)[C@H](Cc2cccc(NC(=O)c3ccc4c(c3)S(=O)(=O)NC(=O)N4)c2)NC(=O)[C@H](CC(=O)O)NC(=O)[C@H]2CCCN2C(=O)[C@H](CCC(=O)O)NC(=O)[C@@H](NC(=O)[C@H](Cc2ccc(O)cc2)NC(=O)[C@@H](NC(=O)CN2CCC(NC(=O)CN3CCN(CC(=O)O)CCN(CC(=O)O)CCN(CC(=O)O)CC3)CC2)C(C)C)CSCc2cccc(c2)CSC[C@@H](C(N)=O)NC(=O)[C@H](CO)NC(=O)[C@H](Cc2c[nH]c3ccccc23)NC(=O)[C@H]([C@@H](C)O)NC1=O [3BP-4415] ({DOTA}-[X2]VYCE[dP]D[X7](X55)LTWSC-NH2; linker 4-13 via mXylylene)
The IC50 of the first is lower: 0.01 to 0.0794 µM for the first, 0.1 to 0.794 µM for the second.

`CC(C)C[C@@H]1NC(=O)[C@H](Cc2c[nH]c3ccccc23)NC(=O)[C@H](CCC(=O)NC2CN(c3ccc(C(N)=O)cc3)C2)NC(=O)[C@H]2CCCN2C(=O)[C@H](CCC(=O)O)NC(=O)[C@@H](NC(=O)[C@H](Cc2ccc(O)cc2)NC(=O)[C@@H](NC(=O)CN2CCC(NC(=O)CN3CCN(CC(=O)O)CCN(CC(=O)O)CCN(CC(=O)O)CC3)CC2)C(C)C)CSCc2cccc(c2)CSC[C@@H](C(N)=O)NC(=O)[C@H](CO)NC(=O)[C@H](Cc2c[nH]c3ccccc23)NC(=O)[C@H]([C@@H](C)O)NC1=O` [3BP-4388] ({DOTA}-[X2]VYCE[dP]E(X60)WLTWSC-NH2; linker 4-13 via mXylylene) and `Cc1cc2cc(CNC(=O)CC[C@@H]3NC(=O)[C@H]4CCCN4C(=O)[C@H](CCC(=O)O)NC(=O)[C@@H](NC(=O)[C@H](Cc4ccc(O)cc4)NC(=O)[C@@H](NC(=O)CN4CCC(NC(=O)CN5CCN(CC(=O)O)CCN(CC(=O)O)CCN(CC(=O)O)CC5)CC4)C(C)C)CSCc4cccc(c4)CSC[C@@H](C(N)=O)NC(=O)[C@H](CO)NC(=O)[C@H](Cc4c[nH]c5ccccc45)NC(=O)[C@H]([C@@H](C)O)NC(=O)[C@H](CC(C)C)NC(=O)[C@H](Cc4c[nH]c5ccccc45)NC3=O)ccc2[nH]c1=O` [3BP-4390] ({DOTA}-[X2]VYCE[dP]E(X53)WLTWSC-NH2; linker 4-13 via mXylylene) fall in the same range of IC50: 0.01 to 0.0794 µM for the first, 0.01 to 0.0794 µM for the second.

`CC(C)C[C@@H]1NC(=O)[C@H](Cc2c[nH]c3ccccc23)NC(=O)[C@H](CCC(=O)N2CCCN(c3ccc(C#N)cc3F)CC2)NC(=O)[C@H]2CCCN2C(=O)[C@H](CCC(=O)O)NC(=O)[C@@H](NC(=O)[C@H](Cc2ccc(O)cc2)NC(=O)[C@@H](NC(=O)CN2CCC(NC(=O)CN3CCN(CC(=O)O)CCN(CC(=O)O)CCN(CC(=O)O)CC3)CC2)C(C)C)CSCc2cccc(c2)CSC[C@@H](C(N)=O)NC(=O)[C@H](CO)NC(=O)[C@H](Cc2c[nH]c3ccccc23)NC(=O)[C@H]([C@@H](C)O)NC1=O` [3BP-4389] ({DOTA}-[X2]VYCE[dP]E(X49)WLTWSC-NH2; linker 4-13 via mXylylene) and `CC(C)C[C@@H]1NC(=O)[C@H](Cc2ccc(NC(=O)c3ccc(CS(N)(=O)=O)cc3)cc2)NC(=O)[C@H](CC(=O)O)NC(=O)[C@H]2CCCN2C(=O)[C@H](CCC(=O)O)NC(=O)[C@@H](NC(=O)[C@H](Cc2ccc(O)cc2)NC(=O)[C@@H](NC(=O)CN2CCC(NC(=O)CN3CCN(CC(=O)O)CCN(CC(=O)O)CCN(CC(=O)O)CC3)CC2)C(C)C)CSCc2cccc(c2)CSC[C@@H](C(N)=O)NC(=O)[C@H](CO)NC(=O)[C@H](Cc2c[nH]c3ccccc23)NC(=O)[C@H]([C@@H](C)O)NC1=O` [3BP-4399] ({DOTA}-[X2]VYCE[dP]D[Phe(4-NH2)](X36)LTWSC-NH2; linker 4-13 via mXylylene) fall in the same range of IC50: 0.01 to 0.0794 µM for the first, 0.01 to 0.0794 µM for the second.
